Reference: patent US20110166112A1, “METHOD FOR STIMULATING PLATELET PRODUCTION” (Eisai, Inc., priority 2009, published 2011)

Test system: subjects with chronic ITP
Experiment: Combined 28-day and 6-month rollover studies of E5501: safety (TEAEs, serious TEAEs, thromboembolic events, neoplasms, liver toxicity, discontinuations)
Assay type: in vivo, human
From the text: Primary Endpoint: The primary endpoint was to assess the safety and tolerability to E5501, including AEs and clinical laboratory parameters, over the 6 additional months of treatment.
In this way, safety data reflect each subject's complete duration of exposure to E5501 starting with lead-in the previous study and continuing into the current study.
Following Protocol Amendment 4, the current study contained a flexible dose regimen; therefore, this study was considered to have an open-label, uncontrolled, single-arm design. […] This was the method used to assess safety. • Grouping method B was based on both treatment received and day 28 platelet response to study drug in Study the previous study. This was the method used for the analysis of efficacy for the FAS and the SE population.
Overall Adverse Events. […] The primary focus is on summary statistics for the entire safety population and provides an overall safety profile for E5501. The summary statistics for each group, e.g., lower ⅓, middle ⅓ and upper ⅓ average daily dose levels, is secondary and provides further safety information across the 3 dose levels.

[1] = Middle ⅓ dose (≧8.85-<13.5 mg), N=22
[2] = Safety Population, Middle ⅓ Mean Daily Dose Level (≧8.85-<13.5 mg)
[3] = Upper ⅓ dose (≧13.5-≦25.7 mg), N=20
[4] = combined studies, E5501-treated subjects overall
[5] = one subject, 5 mg/day, approximately 21 days after initiation, grade 2
[6] = one subject, 20 mg/day, approximately 164 days after initiation, grade 3

## O=C(Nc1nc(-c2cc(Cl)cs2)c(N2CCN(C3CCCCC3)CC2)s1)c1cnc(N2CCC(C(=O)O)CC2)c(Cl)c1 [E5501, 1-(3-chloro-5-{[4-(4-chlorothiophen-2-yl)-5-(4-cyclohexylpiperazin-1-yl)thiazol-2-yl]carbamoyl}pyridine-2-yl)piperidine-4-carboxylic acid]
[1]
  Vomiting, % of subjects: (9.1) %
  Vomiting, n of subjects: 2
  Withdrawal due to TEAE, % of subjects: (9.1) %
  Withdrawal due to TEAE, n of subjects: 2
Safety Population, Lower ⅓ Mean Daily Dose Level (2.5-<8.85 mg)
  Discontinuation in 501-CL-003, PC increase to ≧500,000/mm^3: 0 n
[2]
  Discontinuation in 501-CL-003, PC increase to ≧500,000/mm^3: 0 n
  Discontinuation in 501-CL-004, PC increase to ≧500,000/mm^3: 0 n
Safety Population, Upper ⅓ Mean Daily Dose Level (≧13.5-≦25.7 mg)
  Discontinuation in 501-CL-003, Adverse Event or SAE: 0 n
Total E5501, N=64
  Abdominal pain upper, % of subjects: (4.7) %
  Abdominal pain upper, n of subjects: 3
  Any TEAE, % of subjects: (96.9) %
  Any TEAE, n of subjects: 62
  Arthralgia, % of subjects: (14.1) %
  Arthralgia, n of subjects: 9
  Asthenia, % of subjects: (6.3) %
  Asthenia, n of subjects: 4
  Back pain, % of subjects: (9.4) %
  Back pain, n of subjects: 6
  Constipation, % of subjects: (4.7) %
  Constipation, n of subjects: 3
  Contusion, % of subjects: (18.8) %
  Contusion, n of subjects: 12
  Cough, % of subjects: (4.7) %
  Cough, n of subjects: 3
  Deaths, n of subjects: 0
  Diarrhoea, % of subjects: (14.1) %
  Diarrhoea, n of subjects: 9
  Dizziness, % of subjects: (7.8) %
  Dizziness, n of subjects: 5
  Dose interruption due to TEAE, % of subjects: (12.5) %
  Dose interruption due to TEAE, n of subjects: 8
  Dyspnoea, % of subjects: (9.4) %
  Dyspnoea, n of subjects: 6
  Ecchymosis, % of subjects: (6.3) %
  Ecchymosis, n of subjects: 4
  Epistaxis, % of subjects: (23.4) %
  Epistaxis, n of subjects: 15
  Fatigue, % of subjects: (34.4) %
  Fatigue, n of subjects: 22
  Gingival bleeding, % of subjects: (10.9) %
  Gingival bleeding, n of subjects: 7
  Headache, % of subjects: (32.8) %
  Headache, n of subjects: 21
  Insomnia, % of subjects: (7.8) %
  Insomnia, n of subjects: 5
  Migraine, % of subjects: (4.7) %
  Migraine, n of subjects: 3
  Mouth haemorrhage, % of subjects: (3.1) %
  Mouth haemorrhage, n of subjects: 2
  Nausea, % of subjects: (9.4) %
  Nausea, n of subjects: 6
  Pain in extremity, % of subjects: (9.4) %
  Pain in extremity, n of subjects: 6
  Petechiae, % of subjects: (9.4) %
  Petechiae, n of subjects: 6
  Platelet count increased, % of subjects: (9.4) %
  Platelet count increased, n of subjects: 6
  Serious TEAE, % of subjects: (7.8) %
  Serious TEAE, n of subjects: 5
  Serious treatment-related TEAEs, % of subjects: (3.1) %
  Serious treatment-related TEAEs, n of subjects: 2
  Severe (grade 3-4) TEAEs, % of subjects: (25.0) %
  Severe (grade 3-4) TEAEs, n of subjects: 16
  Somnolence, % of subjects: (3.1) %
  Somnolence, n of subjects: 2
  Suspected drug-related AEs, % of subjects: (64.1) %
  Suspected drug-related AEs, n of subjects: 41
  Upper respiratory tract infection, % of subjects: (9.4) %
  Upper respiratory tract infection, n of subjects: 6
  Vomiting, % of subjects: (10.0) %
  Vomiting, n of subjects: 7
  Withdrawal due to TEAE, % of subjects: (10.9) %
  Withdrawal due to TEAE, n of subjects: 7
[3]
  Abdominal pain upper, % of subjects: (15.0) %
  Abdominal pain upper, n of subjects: 3
  Any Serious TEAE, n (%) of subjects: 1 (5.0) n (%)
  Any TEAE, % of subjects: (100.0) %
  Any TEAE, n of subjects: 20
  Arthralgia, % of subjects: (20.0) %
  Arthralgia, n of subjects: 4
  Asthenia, % of subjects: (5.0) %
  Asthenia, n of subjects: 1
  Back pain, % of subjects: (15.0) %
  Back pain, n of subjects: 3
  Constipation, n of subjects: 0
  Contusion, % of subjects: (30.0) %
  Contusion, n of subjects: 6
  Cough, % of subjects: (10.0) %
  Cough, n of subjects: 2
  Deaths, n of subjects: 0
  Diarrhoea, % of subjects: (25.0) %
  Diarrhoea, n of subjects: 5
  Dizziness, % of subjects: (15.0) %
  Dizziness, n of subjects: 3
  Dose interruption due to TEAE, % of subjects: (10.0) %
  Dose interruption due to TEAE, n of subjects: 2
  Dyspnoea, % of subjects: (5.0) %
  Dyspnoea, n of subjects: 1
  Ecchymosis, % of subjects: (10.0) %
  Ecchymosis, n of subjects: 2
  Epistaxis, % of subjects: (40.0) %
  Epistaxis, n of subjects: 8
  Fatigue, % of subjects: (35.0) %
  Fatigue, n of subjects: 7
  Gingival bleeding, % of subjects: (20.0) %
  Gingival bleeding, n of subjects: 4
  Headache, % of subjects: (40.0) %
  Headache, n of subjects: 8
  Insomnia, % of subjects: (5.0) %
  Insomnia, n of subjects: 1
  Migraine, % of subjects: (10.0) %
  Migraine, n of subjects: 2
  Mouth haemorrhage, % of subjects: (10.0) %
  Mouth haemorrhage, n of subjects: 2
  Nausea, % of subjects: (20.0) %
  Nausea, n of subjects: 4
  Pain in extremity, % of subjects: (10.0) %
  Pain in extremity, n of subjects: 2
  Petechiae, % of subjects: (10.0) %
  Petechiae, n of subjects: 2
  Platelet count increased, % of subjects: (10.0) %
  Platelet count increased, n of subjects: 2
  Serious TEAE Cerebrovascular accident, n (%) of subjects: 1 (5.0) n (%)
  Serious TEAE Chest pain, n (%) of subjects: 1 (5.0) n (%)
  Serious TEAE Diarrhoea, n (%) of subjects: 1 (5.0) n (%)
  Serious TEAE Haemorrhage intracranial, n (%) of subjects: 0 n (%)
  Serious TEAE Lethargy, n (%) of subjects: 0 n (%)
  Serious TEAE Mitral valve incompetence, n (%) of subjects: 1 (5.0) n (%)
  Serious TEAE Myocardial infarction, n (%) of subjects: 0 n (%)
  Serious TEAE Nausea, n (%) of subjects: 0 n (%)
  Serious TEAE Pelvic venous thrombosis, n (%) of subjects: 0 n (%)
  Serious TEAE Platelet count decreased, n (%) of subjects: 0 n (%)
  Serious TEAE Pneumonia, n (%) of subjects: 0 n (%)
  Serious TEAE Pyrexia, n (%) of subjects: 1 (5.0) n (%)
  Serious TEAE Thrombocytopenia, n (%) of subjects: 0 n (%)
  Serious TEAE Transient ischaemic attack, n (%) of subjects: 0 n (%)
  Serious TEAE Vomiting, n (%) of subjects: 1 (5.0) n (%)
  Serious TEAE, % of subjects: (5.0) %
  Serious TEAE, SOC Blood and lymphatic system disorders, n (%) of subjects: 0 n (%)
  Serious TEAE, SOC Cardiac disorders, n (%) of subjects: 1 (5.0) n (%)
  Serious TEAE, SOC Gastrointestinal disorders, n (%) of subjects: 1 (5.0) n (%)
  Serious TEAE, SOC General disorders and administration site conditions, n (%) of subjects: 1 (5.0) n (%)
  Serious TEAE, SOC Infections and infestations, n (%) of subjects: 0 n (%)
  Serious TEAE, SOC Investigations, n (%) of subjects: 0 n (%)
  Serious TEAE, SOC Nervous system disorders, n (%) of subjects: 1 (5.0) n (%)
  Serious TEAE, SOC Vascular disorders, n (%) of subjects: 0 n (%)
  Serious TEAE, n of subjects: 1
  Serious treatment-related TEAEs, n of subjects: 0
  Severe (grade 3-4) TEAEs, % of subjects: (35.0) %
  Severe (grade 3-4) TEAEs, n of subjects: 7
  Somnolence, % of subjects: (10.0) %
  Somnolence, n of subjects: 2
  Suspected drug-related AEs, % of subjects: (65.0) %
  Suspected drug-related AEs, n of subjects: 13
  Upper respiratory tract infection, % of subjects: (15.0) %
  Upper respiratory tract infection, n of subjects: 3
  Vomiting, % of subjects: (20.0) %
  Vomiting, n of subjects: 4
  Withdrawal due to TEAE, % of subjects: (10.0) %
  Withdrawal due to TEAE, n of subjects: 2
Both studies combined
  treated subjects with thromboembolic events: approximately 6%
Both studies combined, doses of 10 mg/day or higher
  subjects with thromboembolic events: 4 subjects
Combined studies
  subjects with TEAE possibly or probably treatment related: 64.1%
  subjects with TEAEs that led to interruption of study treatment: 8 subjects
  subjects with TEAEs that led to premature discontinuation of study treatment: Seven
Combined studies, 64 subjects
  subjects who experienced one or more TEAEs: 96.9%
[4]
  Epistaxis: 23.4%
  Fatigue: 34.4%
  Headache: 32.8%
  Vomiting: 10.9%
  arthralgia: 14.1%
  contusion: 18.8%
  diarrhea: 14.1%
  gingival bleeding: 10.9%
Combined studies, all
  serious TEAEs: 16 cases
  subjects reporting serious TEAEs: Five
During the study
  deaths: No deaths occurred
During this study
  neoplastic events of interest: Three
Lower ⅓ dose level group
  serious TEAEs: 1 cases
  subjects reporting serious TEAEs: 1 subjects
Middle ⅓ dose level group
  serious TEAEs: 9 cases
  subjects reporting serious TEAEs: 3 subjects
[5]
  serum ALT: 210 U/L
  serum AST: 143 U/L
[6]
  ALT: 421 U/L
  AST: 431 U/L
Upper ⅓ dose level group
  serious TEAEs: 6 cases
  subjects reporting serious TEAEs: 1 subjects
